In brackets after ≈: the same amount, converted by molar mass.
Experiments:
[1] = test system: beet armyworm; assay: Effect on beet armyworm, contact test (treated Teflon discs); assay type: in vivo, S. exigua (beet armyworm); settings: Spodoptera exigua, 144 h; second-instar larvae, sprayed Teflon discs 24 hours, then 5 more days on untreated leaf, 25° C; read-out: BEET ARMYWORM Contact Test LC50, ppm
Protocol: (§1) Effect on Tobacco Budworm and Beet Armyworm by Contact.
(§2) Stock solutions of the compounds to be tested having a known concentration were prepared by dissolving weighed amounts in a 90:10 mixture of high-purity acetone and ethanol and these solutions were diluted with distilled water (containing 0.05 percent by weight Tween 20™ surfactant) to obtain the spray solutions of known concentration employed. Teflon™ discs 5 cm in diameter were placed in plastic petri dishes of slightly larger diameter and these dishes were sprayed by means of a track sprayer applying 0.104 mL of spray solution per cup. The Teflon™ discs were allowed to dry, a single second-instar H. virescens (tobacco budworm) or S. exigua (beet armyworm) larva was placed on each Teflon™ disc, and each disc was capped with a plastic lid. Ten Teflon™ discs were prepared for each application rate and five application rates were usually run. Treated discs were stored for 24 hours at 25° C. and then the Teflon™ disc was removed and replaced with an untreated cotton leaf disc. After 5 more days of storage at 25 ° C. the dishes were graded for mortality. Untreated controls and positive controls (cypermethrin) were run simultaneously. The amount of test chemical required to kill half of the larvae (LD50) was calculated.

[2] = test system: Blattella germanica nymphs; assay: Effect on cockroaches, contact test (treated vials); assay type: in vivo; settings: 168 h, 50 ppm solution, after 7 days, 27° C, read-out: percent control, contact test
Protocol: (§3) Two hundred ppm stock solutions of the compounds to be tested were prepared by dissolving 2.4 milligrams (mg) of each test compound in 12 mL of acetone; four lower concentration solutions were prepared by serial dilution using 3 mL of solution. A 0.5 mL portion of each test solution was pipetted onto 0.2 g of yellow corn meal placed in a small test tube cap (Fisher 02-706-33) and the mixture was placed in a fume hood overnight to allow the solvent to evaporate. […] Each cap was then placed in a 9 cm (centimeter) diameter Petri plate along with a 2 dram vial containing a cotton wick and water. A 0.5 mL portion of each test solution was also pipetted into a 20 mL borosilicate glass scintillation vial. The vials were placed on a roller mixer and the acetone was allowed to evaporate while the vials rolled. […] Five late third or early fourth instar Blattella germanica nymphs weighing 0.01-0.04 g were placed in each vial and each Petri plate and covers were applied loosely to allow entry of air. Each Petri plate and vial was held at 27° C., the Petri plates for 21 days and the vials for 7 days. The percent of mortality was read periodically and at the end of the test.

[3] = test system: tobacco budworm; assay: Effect on tobacco budworm, contact test (treated Teflon discs); assay type: in vivo, H. virescens (tobacco budworm); settings: Heliothis virescens, 144 h; second-instar larvae, sprayed Teflon discs 24 hours, then 5 more days on untreated leaf, 25° C; read-out: TOBACCO BUDWORM Contact Test LC50, ppm
Protocol: as §1, §2

[4] = test system: tobacco budworm; assay: Effect on tobacco budworm, contact and ingestion test (treated cotton leaf discs); assay type: in vivo, H. virescens (tobacco budworm); settings: Heliothis virescens, foliar, 120 h; second-instar larvae, sprayed cotton leaf discs, 5 days at 25° C; read-out: TOBACCO BUDWORM Contact and Ingestion Test LC50, ppm
Protocol: (§4) Effect on Tobacco Budworm and Beet Armyworm by Leaf Ingestion and/or Contact.
(§5) Stock solutions of the compounds to be tested having a known concentration were prepared by dissolving weighed amounts in a 90:10 mixture of high-purity acetone and ethanol and these solutions were diluted with distilled water (containing 0.05 percent by weight Tween 20™ surfactant) to obtain the spray solutions of known concentration employed. Greenhouse-grown cotton leaves of uniform age were cut into 2.5 cm diameter discs and one disc was placed in the bottom of each of a number of 30 mL plastic cups. The cups were then sprayed by means of a track sprayer applying 0.055 mL of spray solution per cup. The leaf discs were allowed to dry and then a single second-instar H. virescens (tobacco budworm) or S. exigua (beet armyworm) larva was added to each cup and each cup was capped with a perforated plastic lid. Ten cups were prepared for each insect species and each application rate and five applications rates were usually run. Treated cups were stored for 5 days at 25° C. and were then graded for mortality. Untreated controls and positive controls (cypermethrin) were run simultaneously. The amount of test chemical required to kill half of the larvae (LD50) was calculated.

[5] = test system: Blattella germanica nymphs; assay: Effect on cockroaches, ingestion test (treated corn meal); assay type: in vivo; settings: 504 h, after 21 days, 27° C, read-out: percent control, ingestion test; for mortality at 12.5 ppm: 12.5 ppm solution; for mortality at 50 ppm: 50 ppm solution; for mortality at 200 ppm: 200 ppm solution
Protocol: as §3

[6] = test system: beet armyworm; assay: Effect on beet armyworm, contact and ingestion test (treated cotton leaf discs); assay type: in vivo, S. exigua (beet armyworm); settings: Spodoptera exigua, foliar, 120 h; second-instar larvae, sprayed cotton leaf discs, 5 days at 25° C; read-out: BEET ARMYWORM Contact and Ingestion Test LC50, ppm
Protocol: as §4, §5

| Compound | LC50 [1] [µg/mL] | mortality at 50 ppm [2] [%] | LC50 [3] [µg/mL] | LC50 [4] [µg/mL] | mortality at 12.5 ppm [5] [%] | mortality at 50 ppm [5] [%] | mortality at 200 ppm [5] [%] | LC50 [6] [µg/mL] |
| --- | --- | --- | --- | --- | --- | --- | --- | --- |
| O=C(Nc1ccc(C(F)(F)F)cc1)N1CC(c2ccc(C(F)(F)F)cn2)C(c2ccc(F)cc2)=N1 (centres unmarked) [G, 4,5-Dihydro-3-(4-fluorophenyl)-N-(4-trifluoromethylphenyl)-4-(5-trifluoromethyl-2-pyridinyl)-1H-pyrazole-1-carboxamide] | 5 (≈ 10.1 µM) | 100 | 8.7 (≈ 17.5 µM) | 1.1 (≈ 2.22 µM) | ~100 | ~100 | 100 | 1 (≈ 2.01 µM) |
| N#Cc1ccc(C2CN(C(=O)Nc3ccc(OC(F)(F)F)cc3)N=C2c2ccc(Cl)cc2)nc1 (centres unmarked) [N] | 7.1 (≈ 14.6 µM) | – | 18.3 (≈ 37.7 µM) | 1.5 (≈ 3.09 µM) | – | – | – | 2.1 (≈ 4.32 µM) |
| O=C(Nc1ccc(OC(F)(F)F)cc1)N1CC(c2ncc(Cl)cn2)C(c2ccc(F)cc2)=N1 (centres unmarked) [T, 4-(5-Chloro-2-pyrimidinyl)-4,5-dihydro-3-(4-fluorophenyl)-N-(4-trifluoromethoxyphenyl)-1H-pyrazole-1-carboxamide] | 2.2 (≈ 4.59 µM) | 100 | 7.5 (≈ 15.6 µM) | 1.3 (≈ 2.71 µM) | ~100 | ~100 | 100 | 1.4 (≈ 2.92 µM) |

From patent US5493024A, “3,4,N-trisubstituted-4,5-dihydro-1H-pyrazole-1-carboxamides and their use as insectioides” (DowElanco, priority 1993, dated 1996)
